Experimental data taken from patent US20060004029A1, “Nitrogen-containing aromatic derivatives” (priority 2003, published 2006).
pIC50: −log10 of the molar value.

Tests used:
[1] = tested on: Human Umbilical Vein Endothelial Cells (HUVECs); assay: Inhibition against sandwich tube formation by vascular endothelial cells, VEGF-stimulated; type: cell-based; settings: HUVEC, 25 ng/ml VEGF and 10 ng/ml EGF, 4th day after addition
Method: (§1) Human Umbilical Vein Endothelial Cells (HUVECs) were isolated according to a reported method (Shinseikagaku Jikken Koza [New Biochemistry Experiment Lectures], “Saibo Baiyo Gijutsu” [Cell Culturing Techniques], p. 197-202), • and were cultured in a 5% CO2 incubator (37° C.) using EGM-2 medium (purchased from Clonetics Corp.) until the cells reached confluency.
(§2) An ice-cooled mixture of collagen: 5×RPMI 1640: reconstitution buffer (all purchased from Nitta Gelatin, Inc.) at 7:2:1 was dispensed at 0.4 ml into each well of a 24-well plate. After the solution was gelled by being stationed for 40 minutes in a 5% CO2 incubator (37° C.), HUVEC cell suspension was added at 0.4 ml to each well (using 1 to 1.2×10^5 cells, though the numbers of cells differ slightly according to the HUVEC lot), the HUVEC cell suspension being in human endothelial serum free medium (SFM, purchased from GIBCO BRL) containing added angiogenesis factors [20 ng/ml FGF2 (purchased from GIBCO BRL) and 10 ng/ml EGF (purchased from GIBCO BRL), or 25 ng/ml VEGF (purchased from Wako Pure Chemical Industries Co., Ltd.) and 10 ng/ml EGF, or 30 ng/ml HGF (purchased from R&D Co.) and 10 ng/ml EGF], and cultured overnight in a 5% CO2 incubator (37° C.). On the following day, the medium on the upper layer was aspirated off, and then 0.4 ml of an ice-cooled mixture of collagen: 5×RPMI 1640: reconstitution buffer (all purchased from Nitta Gelatin, Inc.) at 7:2:1 was superposed into each well prior to stationing for 4 hours in a 5% CO2 incubator (37° C.) for gelling. After adding 1.5 ml of an SFM solution containing each of the aforementioned angiogenesis factors and a diluted test substance onto the upper layer, culturing was performed in a 5% CO2 incubator (37° C.). Upon aspirating off the culture supernatant in each well on the 4th day after addition of the test substance, 0.4 ml of a 3.3 mg/ml MTT solution dissolved in PBS (purchased from Sigma Corp.) was added to each well and culturing was performed for approximately 2 hours in a 5% CO2 incubator (37° C.). The tubes formed in the collagen gel of each well were stained by MTT, the tube images were loaded into a computer (Macintosh), and the total length of the tubes was determined by image analysis software “MacScope” (purchased from Mitani Corp.). The ratio of the total length of the tubes formed in the well containing the test substance with respect to the total length of the tubes formed in the well containing no test substance was expressed as a percentage, and the concentration of each test substance required for 50% inhibition of tube formation (IC50) was determined from the ratio value.

[2] = tested on: Human Umbilical Vein Endothelial Cells (HUVECs); assay: Inhibition against sandwich tube formation by vascular endothelial cells, FGF2-stimulated; type: cell-based; settings: HUVEC, 20 ng/ml FGF2 and 10 ng/ml EGF, 4th day after addition
Method: as §1, §2

CCNC(=O)n1ccc2cc(Oc3ccnc(NC(=O)N4CCC(C)(O)CC4)c3)ccc21 [Example 78, 5-(2-(((4-Hydroxy-4-methylpiperidin-1-yl)carbonyl)amino)pyridin-4-yloxy)-1H-indole-1-carboxylic acid ethylamide]
pIC50 [1]: 8.52
pIC50 [2]: 6.35
